According to patent publication US9334264B2, “NAMPT inhibitors” (AbbVie Inc., priority 2012, dated 2016):

How the values were obtained:
[1] = biological target: NAMPT (Homo sapiens, UniProt P43490); assay: Time-Resolved Fluorescence Resonance Energy Transfer (TR-FRET) Binding Assay of NAMPT with PRPP; conditions: 200 μM PRPP and 2.5 mM ATP; 2 nM NAMPT, 2 nM probe, equilibrated 16 hours
Experimental: Time-Resolved Fluorescence Resonance Energy Transfer (TR-FRET) Binding Assay of NAMPT with PRPP
Compound handling and data processing were identical to the assay in the absence of substrates (above). Final concentrations were 1× assay buffer, 2% DMSO, 2 nM NAMPT, 2 nM probe, 1 nM Tb-anti-His antibody (Invitrogen #PV5895), 200 μM PRPP and 2.5 mM ATP. Reactions were equilibrated for 16 hours prior to measurement to allow for potential enzymatic modification of test compounds.

[2] = biological target: NAMPT (human, recombinant, C-terminally His-tagged) (Homo sapiens, UniProt P43490); assay: Time-Resolved Fluorescence Resonance Energy Transfer (TR-FRET) Binding Assay of NAMPT; conditions: absence of substrates; 6.8 nM NAMPT, 200 nM probe, equilibrated 3 hours
Experimental: Determination of the utility of compounds having Formula (I) as binders to and inhibitors of NAMPT was performed using Time-Resolved Fluorescence Resonance Energy Transfer (TR-FRET) binding assays.
Time-Resolved Fluorescence Resonance Energy Transfer (TR-FRET) Binding Assay of NAMPT
Test compounds were serially diluted (typically 11 half log dilutions) in neat DMSO to 50× final concentrations prior to dilution with assay buffer (50 mM HEPES (NaOH), pH 7.5, 100 mM NaCl, 10 mM MgCl2, 1 mM DTT, 1% Glycerol) to 3× and 6% DMSO. Six μL were transferred to 384-well low-volume plates (Owens Corning #3673). To this, 12 μL of a 1.5× solution containing enzyme, probe and antibody were added. Final concentrations in the 18 μL reactions were 1× assay buffer, 2% DMSO, 6.8 nM NAMPT (human, recombinant, C-terminally His-tagged), 200 nM probe (a potent nicotinamide-competitive inhibitor conjugated to Oregon Green 488) and 1 nM Tb-anti-His antibody (Invitrogen #PV5895). Reactions were equilibrated at room temperature for 3 hours prior to reading on an Envision multi-label plate reader (Perkin Elmer; Ex=337 nm, Em=520 and 495 nm). Time-resolved FRET ratios (Em520/Em495) were normalized to controls, plotted as a function of compound concentration and fit with the four-parameter logistic equation to determine IC50s.

Sequence of NAMPT (P43490 whole entry): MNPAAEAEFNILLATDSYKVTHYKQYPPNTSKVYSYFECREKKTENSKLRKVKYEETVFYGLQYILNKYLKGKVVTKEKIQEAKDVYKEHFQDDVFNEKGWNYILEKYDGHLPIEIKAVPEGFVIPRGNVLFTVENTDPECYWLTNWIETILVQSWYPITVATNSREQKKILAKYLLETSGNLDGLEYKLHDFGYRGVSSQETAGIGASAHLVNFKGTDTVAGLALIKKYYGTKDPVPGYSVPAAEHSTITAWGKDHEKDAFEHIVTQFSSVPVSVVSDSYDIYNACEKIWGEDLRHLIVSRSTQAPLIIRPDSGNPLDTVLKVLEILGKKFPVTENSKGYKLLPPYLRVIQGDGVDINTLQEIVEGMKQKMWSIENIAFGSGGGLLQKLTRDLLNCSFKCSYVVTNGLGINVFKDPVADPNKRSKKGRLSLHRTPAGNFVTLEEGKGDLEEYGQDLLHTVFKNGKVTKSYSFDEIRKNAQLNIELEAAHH
Sequence of NAMPT (human, recombinant, C-terminally His-tagged) (P43490 whole entry): as above

Structure (SMILES)	IC50 [1]	IC50 [2]
COCCC(=O)N(Cc1ncccn1)c1ncc(C(=O)NCCCn2ccnc2)s1 [Example 93, N-[3-(1H-imidazol-1-yl)propyl]-2-[(3-methoxypropanoyl)(pyrimidin-2-ylmethyl)amino]-1,3-thiazole-5-carboxamide]	16.6 nM	> 10000 nM
COCCC(=O)N(Cc1ccc(C)nc1)c1ncc(C(=O)NCCCn2ccnc2)s1 [Example 113, N-[3-(1H-imidazol-1-yl)propyl]-2-{(3-methoxypropanoyl)[(6-methylpyridin-3-yl)methyl]amino}-1,3-thiazole-5-carboxamide]	6.76 nM	4990 nM
COCCC(=O)N(CC1COCCO1)c1ncc(C(=O)NCCCn2ccnc2)s1 (centres unmarked) [Example 181, 2-[(1,4-dioxan-2-ylmethyl)(3-methoxypropanoyl)amino]-N-[3-(1H-imidazol-1-yl)propyl]-1,3-thiazole-5-carboxamide]	0.556 nM	> 10000 nM
CC(C)CCN(Cc1ccccc1F)c1ncc(C(=O)NCCCn2ccnc2)s1 [Example 55, 2-[(2-fluorobenzyl)(3-methylbutyl)amino]-N-[3-(1H-imidazol-1-yl)propyl]-1,3-thiazole-5-carboxamide]	3180 nM	> 10000 nM
CN(C)C(=O)CCNC(=O)N(Cc1ccc(C#N)cc1)c1ncc(C(=O)NCCCn2ccnc2)s1 [Example 142, 2-[(4-cyanobenzyl){[3-(dimethylamino)-3-oxopropyl]carbamoyl}amino]-N-[3-(1H-imidazol-1-yl)propyl]-1,3-thiazole-5-carboxamide]	16.9 nM	6040 nM
O=C(NCCCn1ccnc1)c1cnc(N(Cc2ccc(F)cc2)C(=O)CN2CCN3CCCC3C2)s1 (centres unmarked) [Example 33, 2-[(4-fluorobenzyl)(hexahydropyrrolo[1,2-a]pyrazin-2(1H)-ylacetyl)amino]-N-[3-(1H-imidazol-1-yl)propyl]-1,3-thiazole-5-carboxamide]	1.22 nM	8950 nM
COCCC(=O)N(CCNC(=O)C(C)C)c1ncc(C(=O)NCCCn2ccnc2)s1 [Example 199, N-[3-(1H-imidazol-1-yl)propyl]-2-[(3-methoxypropanoyl){2-[(2-methylpropanoyl)amino]ethyl}amino]-1,3-thiazole-5-carboxamide]	0.493 nM	> 10000 nM
Cc1cn(CCCNC(=O)c2cnc(N(Cc3ccc(F)cc3)C(=O)CC(C)C)s2)cn1 [Example 54, 2-[(4-fluorobenzyl)(3-methylbutanoyl)amino]-N-[3-(4-methyl-1H-imidazol-1-yl)propyl]-1,3-thiazole-5-carboxamide]	5.6 nM	2110 nM
COCCC(=O)N(CCC(C)C)c1ncc(C(=O)NCCCn2ccnc2)s1 [Example 150, N-[3-(1H-imidazol-1-yl)propyl]-2-[(3-methoxypropanoyl)(3-methylbutyl)amino]-1,3-thiazole-5-carboxamide]	0.21 nM	252 nM
N#Cc1ccc(CN(C(=O)NCCCC(=O)O)c2ncc(C(=O)NCCCn3ccnc3)s2)cc1 [Example 172, 4-{[(4-cyanobenzyl)(5-{[3-(1H-imidazol-1-yl)propyl]carbamoyl}-1,3-thiazol-2-yl)carbamoyl]amino}butanoic acid]	153 nM	> 10000 nM
O=C(NCCCn1ccnc1)c1cnc(N(Cc2ccc(F)cc2)C(=O)NCC2COCCO2)s1 (centres unmarked) [Example 88, 2-{[(1,4-dioxan-2-ylmethyl)carbamoyl](4-fluorobenzyl)amino}-N-[3-(1H-imidazol-1-yl)propyl]-1,3-thiazole-5-carboxamide]	0.602 nM	> 10000 nM
N#Cc1ccc(CN(C(=O)NCCCO)c2ncc(C(=O)NCCCn3ccnc3)s2)cc1 [Example 130, 2-{(4-cyanobenzyl)[(3-hydroxypropyl)carbamoyl]amino}-N-[3-(1H-imidazol-1-yl)propyl]-1,3-thiazole-5-carboxamide]	1.11 nM	> 10000 nM
C=C[C@H](CO)NC(=O)N(Cc1ccc(C#N)cc1)c1ncc(C(=O)NCCCn2ccnc2)s1 [Example 148, 2-[(4-cyanobenzyl){[(2R)-1-hydroxybut-3-en-2-yl]carbamoyl}amino]-N-[3-(1H-imidazol-1-yl)propyl]-1,3-thiazole-5-carboxamide]	60.6 nM	> 10000 nM
O=C(NCCCn1ccnc1)c1cnc(N2C[C@H](CN3C(=O)c4ccccc4C3=O)OC2=O)s1 [Example 212, 2-{(5S)-5-[(1,3-dioxo-1,3-dihydro-2H-isoindol-2-yl)methyl]-2-oxo-1,3-oxazolidin-3-yl}-N-[3-(1H-imidazol-1-yl)propyl]-1,3-thiazole-5-carboxamide]	1.03 nM	5710 nM
CN(Cc1ccc(-c2cccnc2)cc1)c1ncc(C(=O)NCCCn2ccnc2)s1 [Example 2, N-[3-(1H-imidazol-1-yl)propyl]-2-{methyl[4-(pyridin-3-yl)benzyl]amino}-1,3-thiazole-5-carboxamide]	4.29 nM	7560 nM
COCC(C)NC(=O)N(Cc1ccc(F)cc1)c1ncc(C(=O)NCCCn2ccnc2)s1 (centres unmarked) [Example 80, 2-{(4-fluorobenzyl)[(1-methoxypropan-2-yl)carbamoyl]amino}-N-[3-(1H-imidazol-1-yl)propyl]-1,3-thiazole-5-carboxamide]	1.37 nM	8020 nM
COCCC(=O)N(Cc1cnc(C)cn1)c1ncc(C(=O)NCCCn2ccnc2)s1 [Example 115, N-[3-(1H-imidazol-1-yl)propyl]-2-{(3-methoxypropanoyl)[(5-methylpyrazin-2-yl)methyl]amino}-1,3-thiazole-5-carboxamide]	3.6 nM	1420 nM
O=C(NCCCn1ccnc1)c1cnc(N(Cc2ccc(F)cc2)C(=O)NCC2CCCCO2)s1 (centres unmarked) [Example 81, 2-{(4-fluorobenzyl)[(tetrahydro-2H-pyran-2-ylmethyl)carbamoyl]amino}-N-[3-(1H-imidazol-1-yl)propyl]-1,3-thiazole-5-carboxamide]	1.78 nM	5280 nM
COCCC(=O)N(CCc1cccc(Cl)c1)c1ncc(C(=O)NCCCn2ccnc2)s1 [Example 106, 2-{[2-(3-chlorophenyl)ethyl](3-methoxypropanoyl)amino}-N-[3-(1H-imidazol-1-yl)propyl]-1,3-thiazole-5-carboxamide acetate (1:1)]	1.8 nM	1930 nM
CCN(CC)CCCN(C(=O)CCOC)c1ncc(C(=O)NCCCn2ccnc2)s1 [Example 190, 2-{[3-(diethylamino)propyl](3-methoxypropanoyl)amino}-N-[3-(1H-imidazol-1-yl)propyl]-1,3-thiazole-5-carboxamide]	0.606 nM	2610 nM
CCOC(=O)C(C)(C)CNC(=O)N(Cc1ccc(C#N)cc1)c1ncc(C(=O)NCCCn2ccnc2)s1 [Example 163, ethyl 3-{[(4-cyanobenzyl)(5-{[3-(1H-imidazol-1-yl)propyl]carbamoyl}-1,3-thiazol-2-yl)carbamoyl]amino}-2,2-dimethylpropanoate]	171 nM	6800 nM
CC(C)CCN(C(=O)CC1CCOC1)c1ncc(C(=O)NCCCn2ccnc2)s1 (centres unmarked) [Example 174, N-[3-(1H-imidazol-1-yl)propyl]-2-[(3-methylbutyl)(tetrahydrofuran-3-ylacetyl)amino]-1,3-thiazole-5-carboxamide]	0.714 nM	334 nM
